Source: article PMC13308190, “Endothelial progenitor cell susceptibility to DNA damaging and DDR-modulating compounds determines endothelial differentiation accuracy” (Stem Cell Research & Therapy, 2026)

Assays:
Type in all cases: cell-based, mouse
EC d4 [1] = experiment: VE-cadherin cell-cell junction immunostaining; conditions: EC d4 treated 48 h
[2] = test system: EC d4 (endothelial progenitor cells); experiment: RT-qPCR mRNA expression; conditions: for Ccl2 mRNA / E-selectin mRNA / Icam-1 mRNA / Vcam-1 mRNA / eNos mRNA / iNos mRNA: Fig 8D; for Cdkn1a mRNA / Cdkn2a mRNA / Glb1 mRNA / Il6 mRNA / Il8 mRNA / Tp53 mRNA: Fig 7B
Experimental: Total RNA was purified using the RNeasy Mini Kit (Qiagen, Hilden, Germany). Reverse transcriptase (RT) reaction was performed with the HighCapacity cDNA Reverse Transcription Kit (Applied Biosystems, Darmstadt, Germany) using 900–2000 ng of RNA. Quantitative RT-qPCR analysis was performed using following conditions: (1) 95 °C–10 min; (2) 45 amplification cycles with 95 °C–15 s, 55 °C–15 s, and 72 °C–17 s; (3) 95 °C–1 min, 55 °C–1 min, 65 °C–5 s. If not stated otherwise, analyses were performed in technical triplicates using pooled samples from two independent experiments (each performed with biological duplicates) by use of a CFX96 cycler (BioRad) and the SensiMix SYBR Kit (Bioline, London, UK). The primers used for mRNA expression analyses are listed in Supplementary Table 1. To ensure the specificity of the amplification product, melting curves were recorded at the end of the run. mRNA expression levels were normalized to β-Actin and Gapdh. Relative mRNA expression in mESC or corresponding untreated controls was set to 1.0. Only changes in gene expression of ≤ 0.5- and ≥ 2-fold were considered as biologically relevant.
To monitor prototypical functions of endothelial cells, the uptake of fluorescent 1,1-dioctadecyl-3,3,3,3-tetra-methylindocarbocyanine-labeled acetylated LDL (Dil-acLDL) was examined. Briefly, cells were incubated with Dil-acLDL (10 µg/ml, 4 h, 37 °C). After fixation (3.7% cold formaldehyde/PBS (15 min, RT) nuclei were counterstained with DAPI. The uptake of DiI-acLDL was analyzed by fluorescence microscopy (Olympus BX43, 20x objective). Additionally, the response of differentiated EC to inflammatory cytokines was measured. After treatment with a pro-inflammatory cytokine mixture (TNFα/IL-1β, 10 ng/mL) for 1 h, mRNA expression of activated EC markers E-selectin, Icam-1, Vcam-1, Ccl2, eNos, iNos was analyzed (RT-qPCR).

mESC = experiment: AlamarBlue cell viability; conditions: 24–72 h treatment
Experimental: (§1) Drug-induced cytotoxicity was monitored by analyzing cell viability using the AlamarBlue assay, which measures the reduction of the non-fluorescent dye resazurin (Sigma [Steinheim, Germany]) to fluorescent resorufin by living (i.e. metabolically active) cells. Fluorescence was measured in quadruplicates (excitation: 535 nm, emission: 590 nm (Tecan infinite 200, Tecan, Männedorf, Switzerland)). Relative cell viability of the untreated control was set to 100%.

[3] = test system: EC d4 (endothelial progenitor cells); experiment: AlamarBlue cell viability; conditions: 48 h treatment
Experimental: as §1

EC d6 = experiment: Mitochondrial membrane potential (TMRM-MitoTracker Green); conditions: EC d6 treated 24 h
Experimental: Mitochondrial membrane potential (ΔΨm) was analyzed by live-cell imaging using TMRM-MitoTracker Green co-staining. Cells were seeded and differentiated on Poly-D-Lysine-fibronectine-coated live-imaging dishes. For staining, cells were incubated with 200nM MitoTracker Green (Invitrogen) and 50 nM TMRM (Invitrogen) in DMEM (30 min, 37 °C, 5% CO2). After washing with PBS, live-cell microscopy was performed using a spinning disc confocal microscope (PerkinElmer) equipped with a 60x oil-immersion objective (N.A = 1.49) and a Hamamatsu C9100 camera (1000 × 1000 pixel) (excitation (MitoTracker Green): 488 nm, excitation (TMRM): 561 nm). The cells were kept at 37 °C in OptiMEM supplemented with 10 mM HEPES during imaging. The images were obtained at emission wavelength of 527 nm (W55) and 615 nm (W70) for 488 nm and 561 nm excitation, respectively.

EC d4 [4] = experiment: ZO1 tight junction immunofluorescence; conditions: EC d4 treated 48 h
[5] = EC d4 + 5 µM 48 h, analysed in EC d6
[6] = EC d4 + 5 µM 48 h, then + I/T (IL-1β/TNFα 10 ng/ml, 1 h)
[7] = EC d4 + 15 µM 48 h, analysed day 6, Fig 1C
[8] = EC d4 + 15 µM 48 h, analysed in EC d6
[9] = EC d4 + 15 µM 48 h, then + I/T (IL-1β/TNFα 10 ng/ml, 1 h)

O=c1c2ccccc2nc(/C=C/c2cccnc2)n1Cc1ccccc1 [B02]
VE-cadherin cell-cell junctions in EC d6 differentiated from treated EC d4 (EC d4 [1]): did not trigger defects | Ccl2 mRNA [2, 5]: 2.96 Fold of untreated control | E-selectin mRNA [2, 5]: 120.46 Fold of untreated control | Icam-1 mRNA [2, 5]: 3.12 Fold of untreated control | Vcam-1 mRNA [2, 5]: 0.19 Fold of untreated control | eNos mRNA [2, 5]: 153.40 Fold of untreated control | iNos mRNA [2, 5]: 2.01 Fold of untreated control | Ccl2 mRNA [2, 6]: 279.77 Fold of untreated control | E-selectin mRNA [2, 6]: 257.65 Fold of untreated control | Icam-1 mRNA [2, 6]: 9.69 Fold of untreated control | Vcam-1 mRNA [2, 6]: 0.36 Fold of untreated control | eNos mRNA [2, 6]: 184.04 Fold of untreated control | iNos mRNA [2, 6]: 2.26 Fold of untreated control | Cdkn1a mRNA ([2]; EC d4 + 5 µM 48 h): 1.71 Fold of untreated control | Cdkn2a mRNA ([2]; EC d4 + 5 µM 48 h): 1.24 Fold of untreated control | Glb1 mRNA ([2]; EC d4 + 5 µM 48 h): 1.45 Fold of untreated control | Il6 mRNA ([2]; EC d4 + 5 µM 48 h): 0.80 Fold of untreated control | Il8 mRNA ([2]; EC d4 + 5 µM 48 h): 0.83 Fold of untreated control | Tp53 mRNA ([2]; EC d4 + 5 µM 48 h): 0.98 Fold of untreated control | Flk1 mRNA [2, 7]: 6.99 Fold of mESC | Nanog mRNA [2, 7]: 0.03 Fold of mESC | Oct4 mRNA [2, 7]: 0.01 Fold of mESC | Pecam1 mRNA [2, 7]: 0.62 Fold of mESC | Tie1 mRNA [2, 7]: 29.11 Fold of mESC | VE-cad mRNA [2, 7]: 484.74 Fold of mESC | Ccl2 mRNA [2, 8]: 0.38 Fold of untreated control | E-selectin mRNA [2, 8]: 126.11 Fold of untreated control | Icam-1 mRNA [2, 8]: 1.02 Fold of untreated control | Vcam-1 mRNA [2, 8]: 0.08 Fold of untreated control | eNos mRNA [2, 8]: 47.93 Fold of untreated control | iNos mRNA [2, 8]: 0.43 Fold of untreated control | Ccl2 mRNA [2, 9]: 84.86 Fold of untreated control | E-selectin mRNA [2, 9]: 165.16 Fold of untreated control | Icam-1 mRNA [2, 9]: 2.52 Fold of untreated control | Vcam-1 mRNA [2, 9]: 0.12 Fold of untreated control | eNos mRNA [2, 9]: 55.08 Fold of untreated control | iNos mRNA [2, 9]: 0.33 Fold of untreated control | Brca1 mRNA ([2]; EC d4 + 15 µM 48 h, Fig 5C): 0.27 Fold of mESC | Chk1 mRNA ([2]; EC d4 + 15 µM 48 h, Fig 5C): 0.92 Fold of mESC | Rad51 mRNA ([2]; EC d4 + 15 µM 48 h, Fig 5C): 0.19 Fold of mESC | Pgc1a mRNA ([2]; EC d4 + 15 µM 48 h, Fig 6D): 0.11 Fold of untreated control | Cdkn1a mRNA ([2]; EC d4 + 15 µM 48 h): 2.57 Fold of untreated control | Cdkn2a mRNA ([2]; EC d4 + 15 µM 48 h): 1.39 Fold of untreated control | Glb1 mRNA ([2]; EC d4 + 15 µM 48 h): 2.55 Fold of untreated control | Il6 mRNA ([2]; EC d4 + 15 µM 48 h): 1.35 Fold of untreated control | Il8 mRNA ([2]; EC d4 + 15 µM 48 h): 0.85 Fold of untreated control | Tp53 mRNA ([2]; EC d4 + 15 µM 48 h): 0.72 Fold of untreated control | Cldn5 mRNA ([2]; EC d4 + 15 µM 48 h, Fig 8C): 0.18 Fold of EC d4 or d6 | Ocln mRNA ([2]; EC d4 + 15 µM 48 h, Fig 8C): 1.16 Fold of EC d4 or d6 | Tjp1 mRNA ([2]; EC d4 + 15 µM 48 h, Fig 8C): 1.26 Fold of EC d4 or d6 | Ldlr mRNA ([2]; EC d4 + 15 µM 48 h, Fig 8F): 1.78 Fold of untreated control | IC50 (mESC): ~20 µM | susceptibility (cell viability) of EC d4 as compared to both mESC and EC d6 [3]: not observed | mitochondrial membrane potential (EC d6): significantly reduced | ZO1 containing tight junctions in EC d6 differentiated from treated EC d4 (EC d4 [4]): did not affect
